Test results published in patent US20230330254A1 (Regeneron Pharmaceuticals, Inc., priority 2022, published 2023).
*1 amine or outer side, *2 acyl side, *3 side chain or, on linkers, in order; H or OH if unused. Where a SMILES comes first, the peptide text is derived from it. [ ]: non-standard residue; d: D form. The star is where a group is joined. Bip(2'-Et-4'-O(CH2)4NH2) = CCc1cc(OCCCCN[*:3])ccc1-c1ccc(C[C@H](N[*:1])C(=O)[*:2])cc1; Bip(2'-Et,4'-O(CH2)4NH2) = CCc1cc(OCCCCN)ccc1-c1ccc(C[C@H](N)C(=O)O)cc1; Malonyl(2,2-Me2,histaminyl) = CC(C)(C(=O)NCCc1cnc[nH]1)C(=O)*; X7 = O=C(NCCOCCOCCOCCOC(=O)*)OC[C@@H]1[C@@H]2CCC#CCC[C@@H]21; Nva(5-(3,5-Me2Ph)) = Cc1cc(C)cc(CCC[C@H](N)C(=O)O)c1; Ala(1H-tetrazol-5-yl) = N[C@@H](Cc1nnn[nH]1)C(=O)O; αMePhe(2-F) = C[C@](N)(Cc1ccccc1F)C(=O)O; X6 = CC(C)(C(=O)NO)C(=O)*

Assays:
HEK293/CRE-Luc cells = experiment: Luciferase reporter assay, HEK293/CRE-Luc cells without GLP1R (Example 17); assay type: cell-based, human; settings: HEK293/CRE-Luc cells without hGLP1R, payloads and linker-payloads; for EC50: read-out: EC50
Text: (§1) To test the activity of GLP1R agonist payloads, GLP1R agonist linker-payloads (LPs), and anti-GLP1R antibody tethered drug conjugates (ATDCs) of the invention, a cell-based cAMP responsive luciferase reporter assay was developed. To generate the assay cell line, the firefly luciferase gene was placed under the control of a cAMP response element (CRE) located upstream of a minimal promoter and transfected into HEK293 cells and referred to herein as HEK293/CRE-Luc cells.
(§2) Three-fold serial dilutions of free payloads or LPs were prepared in 100% DMSO, transferred to fresh assay media, and added to the cells at a final constant DMSO concentration of 0.2%. The last well in the plate served as a blank control containing only the assay media and 0.2% DMSO (untreated well) and was plotted as a continuation of the 3-fold serial dilution. Four to six hours later, luciferase activity was determined after the addition of One-Glo™ reagent (Promega, Cat #E6130) to each well. Relative light units (RLUs) were measured on an Envision luminometer (PerkinElmer) and EC50 values were determined using a four-parameter logistic equation over a 12-point dose response curve (GraphPad Prism). The signal to noise (S/N) was determined by taking the ratio of the highest RLU on the dose response curve to the RLU in the untreated wells. Data was generated across several experiments (A-E) with M2361 serving as a reference standard in each experiment to calculate the payload relative potency ((M2361 EC50/payload EC50)*100)) and relative S/N ((payload SN/M2361 SN)*100)).

human GLP1R [1] = target: T1, human GLP1R (Homo sapiens, UniProt P43220); experiment: Human GLP1R cAMP accumulation assay; assay type: cell-based; set-up: HEK293 cells over-expressing full length human GLP-1R were utilized; expressed in transfected cells; host or cells: HEK293 (HEK293/hGLP1R)
T1 sequence (P43220 24-463): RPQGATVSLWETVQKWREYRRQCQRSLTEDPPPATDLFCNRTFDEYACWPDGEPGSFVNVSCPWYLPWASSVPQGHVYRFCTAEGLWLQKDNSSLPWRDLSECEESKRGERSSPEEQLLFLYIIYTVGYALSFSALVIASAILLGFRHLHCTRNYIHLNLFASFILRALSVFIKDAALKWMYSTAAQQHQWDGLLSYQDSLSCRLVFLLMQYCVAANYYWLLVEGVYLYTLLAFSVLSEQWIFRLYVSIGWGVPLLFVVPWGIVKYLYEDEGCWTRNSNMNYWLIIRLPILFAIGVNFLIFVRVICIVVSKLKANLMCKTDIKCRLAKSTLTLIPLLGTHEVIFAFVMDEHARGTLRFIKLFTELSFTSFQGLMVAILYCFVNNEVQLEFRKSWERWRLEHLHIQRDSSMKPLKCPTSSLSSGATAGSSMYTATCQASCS
Description: 8.1 Human GLP1R cAMP Accumulation Assay (Cyclic AMP Determination)
The functional activity of the test compounds for agonizing GLP1R were evaluated using a cell-based assay. For the assay, HEK293 cells over-expressing full length human GLP-1R were utilized and the downstream cAMP accumulation was assessed as a measure of human GLP-1R stimulation. […] Diluted compounds were transferred to OptiPlates (100 nL/well) using an Echo liquid handler. HEK293/hGLP1R cells were thawed in 37° C. water-bath, washed 2 times with HBSS and re-suspended in assay buffer (HBSS+5 mM HEPES+500 μM IBMX+0.1% BSA). […] After centrifugation, the assay plate was incubated at 23° C. for 30 min. The reaction was terminated by adding 10 μL of lysis buffer containing D2-cAMP and a cAMP-antibody from the cyclic AMP immunoassay kit (Cisbio, Cat #62AM4PEJ). […] The levels of cAMP per well were calculated using a standard curve generated by GraphPad Prism. Percent activity was calculated according to the formula (% Activity=100%*(cAMP level-LC)/(HC-LC)). EC50 values were fitted from a four-parameter logistic equation over a 10-point response curve (GraphPad Prism).

human GLP1R [2] = target: T1, human GLP1R; experiment: Luciferase reporter assay, HEK293/CRE-Luc/hGLP1R (Example 17); assay type: cell-based; set-up: engineered to express full-length human GLP1R, cynomolgus GLP1R; expressed in transfected cells; host or cells: HEK293/CRE-Luc; settings: HEK293/CRE-Luc/hGLP1R; for S/N: highest RLU / RLU of untreated wells; for EC50: payloads and linker-payloads, experiments A-E, M2361 repeated in each, read-out: EC50; for Relative Potency (% M2361 EC50) / Relative Signal:Noise (% M2361): relative to M2361 of the same experiment
Text: as §1, §2

[3] = HEK293/hGLP1R cells, Table 4, read-out: cAMP EC50

Row | SMILES | S/N (HEK293/CRE-Luc cells) | EC50 (HEK293/CRE-Luc cells) | EC50 (human GLP1R [1]; [3]) | S/N (human GLP1R [2]) | EC50 (human GLP1R [2]) | Relative Potency (% M2361 EC50) (human GLP1R [2]) | Relative Signal:Noise (% M2361) (human GLP1R [2]) | EC50 (human GLP1R [1])
1 | CCc1cc(OCCCCNC(=O)[C@H](CO)NC(=O)CNC(=O)CNC(=O)CNC(=O)CNC(=O)CCC(=O)N2Cc3ccccc3C#Cc3ccccc32)ccc1-c1ccc(C[C@H](NC(=O)[C@H](CC(=O)O)NC(=O)[C@H](CO)NC(=O)[C@@H](NC(=O)[C@](C)(Cc2ccccc2F)NC(=O)[C@@H](NC(=O)CNC(=O)[C@H](Cc2nn[nH]n2)NC(=O)C(C)(C)C(=O)NCCc2cnc[nH]2)[C@@H](C)O)[C@@H](C)O)C(=O)N[C@@H](CCCc2cc(C)cc(C)c2)C(=O)Nc2ccccc2)cc1 [LP15, DIBAC- suc-G4S- P23] | 1.5 | > 200000 pM | 649 pM | 48.1 | 70.4 pM | 7.5% | 73.2% | –
2 | CCc1cc(OCCCCn2cc(COCCOCCOCCOCCNC(=O)OC[C@@H]3[C@@H]4CCC#CCC[C@@H]43)nn2)ccc1-c1ccc(C[C@H](NC(=O)[C@H](CC(=O)O)NC(=O)[C@H](CO)NC(=O)[C@@H](NC(=O)[C@](C)(Cc2ccccc2F)NC(=O)[C@@H](NC(=O)CNC(=O)[C@H](Cc2nn[nH]n2)NC(=O)C(C)(C)C(=O)NCCc2cnc[nH]2)[C@@H](C)O)[C@@H](C)O)C(=O)N[C@@H](CCCc2cc(C)cc(C)c2)C(N)=O)cc1 [LP9, BCN-PEG4-triazole-P8] | 1.3 | > 200000 pM | 78 pM | 73.8 | 17.4 pM | 30.5% | 112.2% | –
3 | CCc1cc(OCCCCN)ccc1-c1ccc(C[C@H](NC(=O)[C@H](CC(=O)O)NC(=O)[C@H](CO)NC(=O)[C@@H](NC(=O)[C@](C)(Cc2ccccc2F)NC(=O)[C@@H](NC(=O)CNC(=O)[C@H](Cc2nn[nH]n2)NC(=O)C(C)(C)C(=O)NO)[C@@H](C)O)[C@@H](C)O)C(=O)N[C@@H](CCCc2cc(C)cc(C)c2)C(N)=O)cc1 [P5] (X6-[Ala(1H-tetrazol-5-yl)]GT[αMePhe(2-F)]TSD[Bip(2'-Et,4'-O(CH2)4NH2)][Nva(5-(3,5-Me2Ph))]-NH2) | 1.3 | > 200000 pM | 115 pM | 50.6 | 127 pM | 4.2% | 76.9% | –
4 | CCc1cc(OCCCCNC(=O)[C@H](CO)NC(=O)CNC(=O)CNC(=O)CNC(=O)CNC(=O)CCC(=O)N2Cc3ccccc3C#Cc3ccccc32)ccc1-c1ccc(C[C@H](NC(=O)[C@H](CC(=O)O)NC(=O)[C@H](CO)NC(=O)[C@@H](NC(=O)[C@](C)(Cc2ccccc2F)NC(=O)[C@@H](NC(=O)CNC(=O)[C@H](Cc2nn[nH]n2)NC(=O)C(C)(C)C(=O)NCCc2cnc[nH]2)[C@@H](C)O)[C@@H](C)O)C(=O)N[C@@H](CCCc2cc(C)cc(C)c2)C(N)=O)cc1 [LP6, DIBAC- suc-G4S- P9] | 1.4 | > 200000 pM | 436 pM | 65.7 | 25.1 pM | 21.2% | 99.9% | –
5 | CCc1cc(OCCCCN)ccc1-c1ccc(C[C@H](NC(=O)[C@H](CC(=O)O)NC(=O)[C@H](CO)NC(=O)[C@@H](NC(=O)[C@](C)(Cc2ccccc2F)NC(=O)[C@@H](NC(=O)CNC(=O)[C@H](Cc2nn[nH]n2)NC(=O)[C@@H](N)CO)[C@@H](C)O)[C@@H](C)O)C(=O)N[C@@H](CCCc2cc(C)cc(C)c2)C(N)=O)cc1 [P7] (H-S[Ala(1H-tetrazol-5-yl)]GT[αMePhe(2-F)]TSD[Bip(2'-Et,4'-O(CH2)4NH2)][Nva(5-(3,5-Me2Ph))]-NH2) | 1.0 | > 200000 pM | 2060 pM | 48.4 | 1890 pM | 0.3% | 73.6% | –
6 | CCc1cc(OCCCCNC(=O)OCCOCCOCCOCCNC(=O)OC[C@@H]2[C@@H]3CCC#CCC[C@@H]32)ccc1-c1ccc(C[C@H](NC(=O)[C@H](CC(=O)O)NC(=O)[C@H](CO)NC(=O)[C@@H](NC(=O)[C@](C)(Cc2ccccc2F)NC(=O)[C@@H](NC(=O)CNC(=O)[C@H](Cc2nn[nH]n2)NC(=O)C(C)(C)C(=O)NCCc2cnc[nH]2)[C@@H](C)O)[C@@H](C)O)C(=O)N[C@@H](CCCc2cc(C)cc(C)c2)C(N)=O)cc1 [LP5, BCN-PEG4-carba-mate P9] ({Malonyl(2,2-Me2,histaminyl)}-[Ala(1H-tetrazol-5-yl)]GT[αMePhe(2-F)]TSD[Bip(2'-Et-4'-O(CH2)4NH2)](X7)[Nva(5-(3,5-Me2Ph))]-NH2) | 1.8 | > 200000 pM | 44 pM | 54.8 | 24.2 pM | 21.9% | 83.4% | –
7 | CCc1cc(OC)ccc1-c1ccc(C[C@H](NC(=O)[C@H](CC(=O)O)NC(=O)[C@H](CO)NC(=O)C(NC(=O)[C@](C)(Cc2ccccc2F)NC(=O)[C@@H](NC(=O)CNC(=O)[C@H](Cc2nn[nH]n2)NC(=O)C(C)(C)C(=O)NCCc2cnc[nH]2)[C@@H](C)O)[C@@H](C)O)C(=O)N[C@@H](CCCc2ccc(OCCCCN)cc2)C(N)=O)cc1 (stereo in doubt) [P24] | 1.0 | > 200000 pM | 136 pM | 65.0 | 31.6 pM | 16.8% | 98.9% | –
8 | CCc1cc(OCCCCNC(=O)CNC(=O)CNC(=O)CNC(=O)CNC(=O)[C@H](CO)NC(=O)CCC(=O)N2Cc3ccccc3C#Cc3ccccc32)ccc1-c1ccc(C[C@H](NC(=O)[C@H](CC(=O)O)NC(=O)[C@H](CO)NC(=O)[C@@H](NC(=O)[C@](C)(Cc2ccccc2F)NC(=O)[C@@H](NC(=O)CNC(=O)[C@H](Cc2nn[nH]n2)NC(=O)C(C)(C)C(=O)NCCc2cnc[nH]2)[C@@H](C)O)[C@@H](C)O)C(=O)N[C@@H](CCCc2cc(C)cc(C)c2)C(N)=O)cc1 [LP7, DIBAC-suc-SG4-P9] | 1.1 | > 200000 pM | 378 pM | 55.3 | 9.72 pM | 54.6% | 84.1% | –
9 | CCc1cc(OCCCCNC(=O)CNC(=O)CNC(=O)CNC(=O)CNC(=O)[C@H](CO[C@@H]2O[C@H](CO)[C@@H](O)[C@H](O)[C@H]2O)NC(=O)CCNC(=O)OC[C@@H]2[C@@H]3CCC#CCC[C@@H]32)ccc1-c1ccc(C[C@H](NC(=O)[C@H](CC(=O)O)NC(=O)[C@H](CO)NC(=O)[C@@H](NC(=O)[C@](C)(Cc2ccccc2F)NC(=O)[C@@H](NC(=O)CNC(=O)[C@H](Cc2nn[nH]n2)NC(=O)C(C)(C)C(=O)NCCc2cnc[nH]2)[C@@H](C)O)[C@@H](C)O)C(=O)N[C@@H](CCCc2cc(C)cc(C)c2)C(N)=O)cc1 [LP18, BCN NHC2 H4CO (glucose) SG4-P9] | 1.1 | > 200000 pM | 458 pM | 62.1 | 46.7 pM | 11.4% | 94.4% | –
10 | CCc1cc(OCCCCNC(=O)CCOCCOCCOCCOCCOCCOCCOCCOCCOCCOCCOCCOCCOCCOCCOCCOCCOCCOCCOCCOCCOCCOCCOCCOCCNC(=O)CCC(=O)N2Cc3ccccc3-c3nnn(CC4OC5OC6C(CO)OC(OC7C(CO)OC(OC8C(CO)OC(OC9C(CO)OC(OC%10C(CO)OC(OC4C(O)C5O)C(O)C%10O)C(O)C9O)C(O)C8O)C(O)C7O)C(O)C6O)c3-c3ccccc32)ccc1-c1ccc(C[C@H](NC(=O)[C@H](CC(=O)O)NC(=O)[C@H](CO)NC(=O)[C@@H](NC(=O)[C@](C)(Cc2ccccc2F)NC(=O)[C@@H](NC(=O)CNC(=O)[C@H](Cc2nn[nH]n2)NC(=O)C(C)(C)C(=O)NCCc2cnc[nH]2)[C@@H](C)O)[C@@H](C)O)C(=O)N[C@@H](CCCc2cc(C)cc(C)c2)C(N)=O)cc1 (stereo partly shown) [LP22, cyclo-dex-trin-triazole-DIBAC-suc-PEG24-P9] | – | – | – | – | – | – | – | 2710 pM
